Source: ChEMBL document CHEMBL1129258, “Synthesis and structure-activity relationships of 2-pyridones: a novel series of potent DNA gyrase inhibitors as antibacterial agents” (J Med Chem, 1996)
≈ marks a conversion by molar mass, not a printed value.

Test system: not listed separately
Assay: In vitro antibacterial activity against gram-negative organism Pseudomonas aeruginosa DPHD-2862
Type: functional
Conditions: not given

| SMILES | MIC [µg/mL] |
| --- | --- |
| Cc1c(N2C[C@@H]3CCCN[C@@H]3C2)c(F)cn2c(=O)c(C(=O)O)cc(C3CC3)c12 (stereo in doubt; 45n) | 3.1 (≈ 8.04 µM) |

Same assay, conditions: Pseudomonas aeruginosa; read-out: MIC

| SMILES | MIC [µg/mL] |
| --- | --- |
| Cc1c(N2C[C@@H](C)N[C@@H](C)C2)c(F)cn2c(=O)c(C(=O)O)cc(C3CC3)c12 | 12.5 (≈ 33.5 µM) |
| Cc1c(N2C[C@@H]3CCCN[C@@H]3C2)c(F)cn2c(=O)c(C(=O)O)cc(C3CC3)c12 (stereo in doubt; (S,S)45n) | 3.1 (≈ 8.04 µM) |

Target: T1, DNA gyrase (Escherichia coli) (UniProt P0AES6+P0AES4)
Assay: In vitro antibacterial activity against gram-negative organism Klebsiella pneumoniae ATCC 8045
Type: functional
Conditions: not given

| SMILES | MIC [µg/mL] |
| --- | --- |
| Cc1c(N2C[C@@H](C)N[C@@H](C)C2)c(F)cn2c(=O)c(C(=O)O)cc(C3CC3)c12 | 0.02 (≈ 0.0536 µM) |

Target: T1, DNA gyrase (Escherichia coli)
Assay: In vitro antibacterial against gram-negative organism Escherichia coli JUHL
Type: functional
Conditions: Escherichia coli K-12

| SMILES | MIC [µg/mL] |
| --- | --- |
| Cc1c(N2C[C@@H](C)N[C@@H](C)C2)c(F)cn2c(=O)c(C(=O)O)cc(C3CC3)c12 | 0.02 (≈ 0.0536 µM) |

Target: T1, DNA gyrase (Escherichia coli)
Assay: In vitro antibacterial activity against gram-negative organism […] ATCC 13048
Type: functional
Conditions: Enterobacter aerogenes

| SMILES | MIC [µg/mL] |
| --- | --- |
| Cc1c(N2C[C@@H](C)N[C@@H](C)C2)c(F)cn2c(=O)c(C(=O)O)cc(C3CC3)c12 | 0.1 (≈ 0.268 µM) |

Test system: Streptococcus pneumoniae
Assay: (§1) In vivo efficacy against Strep. administration
Type: functional
Conditions: not given

| SMILES | ED50 [mg/kg] |
| --- | --- |
| Cc1c(N2C[C@@H](C)N[C@@H](C)C2)c(F)cn2c(=O)c(C(=O)O)cc(C3CC3)c12 | 49.4 |
| Cc1c(N2C[C@@H]3CCCN[C@@H]3C2)c(F)cn2c(=O)c(C(=O)O)cc(C3CC3)c12 (stereo in doubt; (S,S)45n) | 3.6 |
| Cc1c(N2C[C@@H]3CCCN[C@@H]3C2)c(F)cn2c(=O)c(C(=O)O)cc(C3CC3)c12 (stereo in doubt; 45n) | 12.5 |

Test system: Streptococcus pneumoniae
Assay: In vivo efficacy against Strep. administered
Type: functional
Conditions: not given

| SMILES | ED50 [mg/kg] |
| --- | --- |
| Cc1c(N2C[C@@H](C)N[C@@H](C)C2)c(F)cn2c(=O)c(C(=O)O)cc(C3CC3)c12 | > 8 |

Same assay, conditions: Streptococcus pneumoniae; read-out: ED50

| SMILES | ED50 [mg/kg] |
| --- | --- |
| Cc1c(N2C[C@@H]3CCCN[C@@H]3C2)c(F)cn2c(=O)c(C(=O)O)cc(C3CC3)c12 (stereo in doubt; (S,S)45n) | 2.2 |

Target: T1, DNA gyrase (Escherichia coli)
Assay: In vivo efficacy against Escherichia coli JUHL by subcutaneous administration
Type: functional, organism-based
Conditions: Escherichia coli K-12

| SMILES | ED50 [mg/kg] |
| --- | --- |
| Cc1c(N2C[C@@H](C)N[C@@H](C)C2)c(F)cn2c(=O)c(C(=O)O)cc(C3CC3)c12 | 1.3 |

Target: T1, DNA gyrase (Escherichia coli)
Assay: not given
Conditions: Escherichia coli K-12

| SMILES | CC50 [µg/mL] |
| --- | --- |
| Cc1c(N2C[C@@H](C)N[C@@H](C)C2)c(F)cn2c(=O)c(C(=O)O)cc(C3CC3)c12 | 1.8 (≈ 4.82 µM) |

Target: T2, DNA gyrase (Staphylococcus aureus) (UniProt P0A0K8+P20831)
Assay: In vivo efficacy against Staphylococcus aureus NCTC-10649M after subcutaneous administration
Type: functional, organism-based
Conditions: not given

T2 sequence (P0A0K8 2-644 limits assumed): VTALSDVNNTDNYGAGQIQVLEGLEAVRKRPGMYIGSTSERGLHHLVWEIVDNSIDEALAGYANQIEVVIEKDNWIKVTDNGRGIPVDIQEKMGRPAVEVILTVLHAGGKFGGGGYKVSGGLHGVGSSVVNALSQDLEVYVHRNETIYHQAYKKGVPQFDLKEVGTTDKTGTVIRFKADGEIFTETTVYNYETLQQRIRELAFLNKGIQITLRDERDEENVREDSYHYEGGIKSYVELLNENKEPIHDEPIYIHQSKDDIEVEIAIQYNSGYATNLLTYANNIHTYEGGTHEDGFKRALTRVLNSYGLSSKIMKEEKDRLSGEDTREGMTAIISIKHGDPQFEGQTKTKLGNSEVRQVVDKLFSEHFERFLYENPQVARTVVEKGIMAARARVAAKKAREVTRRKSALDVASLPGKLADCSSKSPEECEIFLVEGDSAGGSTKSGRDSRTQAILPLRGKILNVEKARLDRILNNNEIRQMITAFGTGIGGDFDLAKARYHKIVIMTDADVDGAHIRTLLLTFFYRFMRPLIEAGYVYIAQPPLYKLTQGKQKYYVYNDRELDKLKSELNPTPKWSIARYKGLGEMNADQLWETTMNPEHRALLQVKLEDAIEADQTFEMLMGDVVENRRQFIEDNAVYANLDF
T2 sequence (P20831 whole entry partner): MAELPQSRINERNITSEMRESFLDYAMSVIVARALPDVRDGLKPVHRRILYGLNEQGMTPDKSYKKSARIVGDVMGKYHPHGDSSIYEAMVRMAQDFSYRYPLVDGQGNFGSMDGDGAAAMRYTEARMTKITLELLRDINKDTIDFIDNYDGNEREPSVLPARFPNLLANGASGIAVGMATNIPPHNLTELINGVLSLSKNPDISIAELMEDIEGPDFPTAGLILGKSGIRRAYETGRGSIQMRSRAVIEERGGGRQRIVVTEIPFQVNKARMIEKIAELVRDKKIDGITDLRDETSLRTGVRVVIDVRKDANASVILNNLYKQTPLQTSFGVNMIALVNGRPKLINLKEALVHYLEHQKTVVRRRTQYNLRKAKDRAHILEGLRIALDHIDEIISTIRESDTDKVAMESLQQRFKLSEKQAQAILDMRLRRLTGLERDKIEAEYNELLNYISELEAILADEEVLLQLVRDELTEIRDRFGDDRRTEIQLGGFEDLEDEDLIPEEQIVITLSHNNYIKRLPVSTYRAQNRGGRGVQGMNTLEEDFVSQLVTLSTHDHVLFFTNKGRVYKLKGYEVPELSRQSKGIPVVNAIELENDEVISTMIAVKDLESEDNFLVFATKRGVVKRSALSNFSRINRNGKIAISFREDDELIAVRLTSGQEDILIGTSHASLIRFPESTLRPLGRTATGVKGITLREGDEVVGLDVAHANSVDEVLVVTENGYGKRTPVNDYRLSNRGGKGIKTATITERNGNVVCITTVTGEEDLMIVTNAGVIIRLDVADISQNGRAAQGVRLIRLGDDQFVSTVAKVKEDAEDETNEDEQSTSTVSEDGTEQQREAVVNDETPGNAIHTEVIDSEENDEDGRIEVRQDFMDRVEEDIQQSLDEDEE

| SMILES | ED50 [mg/kg] |
| --- | --- |
| Cc1c(N2C[C@@H](C)N[C@@H](C)C2)c(F)cn2c(=O)c(C(=O)O)cc(C3CC3)c12 | 4.4 |

Target: T1, DNA gyrase (Escherichia coli)
Assay: In vitro antibacterial activity against gram-negative organism Prov. stuartii CMX-640
Type: functional
Conditions: Providencia stuartii

| SMILES | MIC [µg/mL] |
| --- | --- |
| Cc1c(N2C[C@@H](C)N[C@@H](C)C2)c(F)cn2c(=O)c(C(=O)O)cc(C3CC3)c12 | 3.1 (≈ 8.3 µM) |

Target: T1, DNA gyrase (Escherichia coli)
Assay: In vitro antibacterial activity against gram-positive organism Streptococcus bovis A-5169
Type: functional
Conditions: Streptococcus equinus

| SMILES | MIC [µg/mL] |
| --- | --- |
| Cc1c(N2C[C@@H](C)N[C@@H](C)C2)c(F)cn2c(=O)c(C(=O)O)cc(C3CC3)c12 | 0.78 (≈ 2.09 µM) |

Target: T1, DNA gyrase (Escherichia coli)
Assay: In vivo efficacy against Escherichia coli JUHL after oral administration
Type: functional, organism-based
Conditions: Escherichia coli K-12

| SMILES | ED50 [mg/kg] |
| --- | --- |
| Cc1c(N2C[C@@H](C)N[C@@H](C)C2)c(F)cn2c(=O)c(C(=O)O)cc(C3CC3)c12 | 2.1 |

Test system: Streptococcus pneumoniae
Assay: as §1
Type: functional
Conditions: not given

| SMILES | ED50 [mg/kg] |
| --- | --- |
| Cc1c(N2C[C@@H]3CCCN[C@@H]3C2)c(F)cn2c(=O)c(C(=O)O)cc(C3CC3)c12 (stereo in doubt; 45n) | 4.4 |

Target: T2, DNA gyrase (Staphylococcus aureus)
Assay: In vitro antibacterial activity against gram-positive organism Staphylococcus aureus NCTC-10649M
Type: functional
Conditions: not given

| SMILES | MIC [µg/mL] |
| --- | --- |
| Cc1c(N2C[C@@H](C)N[C@@H](C)C2)c(F)cn2c(=O)c(C(=O)O)cc(C3CC3)c12 | 0.1 (≈ 0.268 µM) |

Test system: Streptococcus pyogenes
Assay: In vitro antibacterial activity against gram-positive organism Streptococcus pyogenes EES61
Type: functional
Conditions: not given

| SMILES | MIC [µg/mL] |
| --- | --- |
| Cc1c(N2C[C@@H]3CCCN[C@@H]3C2)c(F)cn2c(=O)c(C(=O)O)cc(C3CC3)c12 (stereo in doubt; (S,S)45n) | 0.05 (≈ 0.13 µM) |
| Cc1c(N2C[C@@H]3CCCN[C@@H]3C2)c(F)cn2c(=O)c(C(=O)O)cc(C3CC3)c12 (stereo in doubt; 45n) | 0.01 (≈ 0.0259 µM) |

Same assay, conditions: Streptococcus pyogenes; read-out: MIC

| SMILES | MIC [µg/mL] |
| --- | --- |
| Cc1c(N2C[C@@H](C)N[C@@H](C)C2)c(F)cn2c(=O)c(C(=O)O)cc(C3CC3)c12 | 0.39 (≈ 1.04 µM) |

Test system: not listed separately
Assay: In vivo efficacy against Pseudomonas aeruginosa 5007 after subcutaneous administration
Type: functional
Conditions: Pseudomonas aeruginosa, sc; read-out: ED50

| SMILES | ED50 [mg/kg] |
| --- | --- |
| Cc1c(N2C[C@@H](C)N[C@@H](C)C2)c(F)cn2c(=O)c(C(=O)O)cc(C3CC3)c12 | > 8 |
| Cc1c(N2C[C@@H]3CCCN[C@@H]3C2)c(F)cn2c(=O)c(C(=O)O)cc(C3CC3)c12 (stereo in doubt; (S,S)45n) | > 8 |

Target: T2, DNA gyrase (Staphylococcus aureus)
Assay: In vitro antibacterial activity against gram-positive organism Staphylococcus aureus ATCC 6538p
Type: functional
Conditions: not given

| SMILES | MIC [µg/mL] |
| --- | --- |
| Cc1c(N2C[C@@H](C)N[C@@H](C)C2)c(F)cn2c(=O)c(C(=O)O)cc(C3CC3)c12 | 0.1 (≈ 0.268 µM) |

Test system: Enterococcus faecium
Assay: Inhibitory activity against enterococcus faecium Van A
Type: functional
Conditions: not given

| SMILES | MIC [µg/mL] |
| --- | --- |
| Cc1c(N2C[C@@H]3CCCN[C@@H]3C2)c(F)cn2c(=O)c(C(=O)O)cc(C3CC3)c12 (stereo in doubt; 45n) | 0.5 (≈ 1.3 µM) |

Target: T1, DNA gyrase (Escherichia coli)
Assay: In vitro antibacterial activity against gram-positive organism Enterococcus faecium ATCC 8043
Type: functional
Conditions: not given

| SMILES | MIC [µg/mL] |
| --- | --- |
| Cc1c(N2C[C@@H](C)N[C@@H](C)C2)c(F)cn2c(=O)c(C(=O)O)cc(C3CC3)c12 | 0.39 (≈ 1.04 µM) |

Test system: Pseudomonas aeruginosa
Assay: In vivo efficacy against Pseudomonas aeruginosa 5007 following p.o. administration.
Conditions: not given

| SMILES | ED50 [mg/kg] |
| --- | --- |
| Cc1c(N2C[C@@H](C)N[C@@H](C)C2)c(F)cn2c(=O)c(C(=O)O)cc(C3CC3)c12 | 12.7 |

Test system: not listed separately
Assay: In vitro antibacterial activity against gram-negative organism Pseudomonas aeruginosa 5007
Type: functional
Conditions: Pseudomonas aeruginosa; read-out: MIC

| SMILES | MIC [µg/mL] |
| --- | --- |
| Cc1c(N2C[C@@H](C)N[C@@H](C)C2)c(F)cn2c(=O)c(C(=O)O)cc(C3CC3)c12 | 1.56 (≈ 4.18 µM) |
| Cc1c(N2C[C@@H]3CCCN[C@@H]3C2)c(F)cn2c(=O)c(C(=O)O)cc(C3CC3)c12 (stereo in doubt; (S,S)45n) | 0.2 (≈ 0.519 µM) |

Target: T2, DNA gyrase (Staphylococcus aureus)
Assay: In vivo efficacy against Staphylococcus aureus NCTC-10649M after oral administration
Type: functional, organism-based
Conditions: not given

| SMILES | ED50 [mg/kg] |
| --- | --- |
| Cc1c(N2C[C@@H](C)N[C@@H](C)C2)c(F)cn2c(=O)c(C(=O)O)cc(C3CC3)c12 | 4.8 |

Test system: Enterococcus faecalis
Assay: Inhibitory activity against enterococcus faecalis Van B
Type: functional
Conditions: not given

| SMILES | MIC [µg/mL] |
| --- | --- |
| Cc1c(N2C[C@@H]3CCCN[C@@H]3C2)c(F)cn2c(=O)c(C(=O)O)cc(C3CC3)c12 (stereo in doubt; 45n) | 0.06 (≈ 0.156 µM) |

Target: T2, DNA gyrase (Staphylococcus aureus)
Assay: In vitro antibacterial activity against gram-positive organism Staphylococcus aureus 1775
Type: functional
Conditions: not given

| SMILES | MIC [µg/mL] |
| --- | --- |
| Cc1c(N2C[C@@H](C)N[C@@H](C)C2)c(F)cn2c(=O)c(C(=O)O)cc(C3CC3)c12 | 6.2 (≈ 16.6 µM) |
